Among the data in PubChem BioAssay (NCI) are GI50 and TGI values, retold here.

Among the test systems are A498 renal; KM12 colon; M14 melanoma; COLO 205 colon; SNB-75 CNS; OVCAR-4 ovarian; MALME-3M melanoma; IGROV1 ovarian; HL-60(TB) leukemia; SK-MEL-5 melanoma.
Holding throughout (test): DTP human tumour cell line panel, 48 h

Structures are written as SMILES. Several values for one entry are separate records, joined by “and”; a condition that tells them apart may be missing. Identical values can stand only once.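 These data come from cells grown in 96-well plates and exposed to compound for 48 hours at five concentrations. GI50 is the concentration that inhibits growth by half. At the TGI there is no net growth.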

The term GI50 denotes the concentration giving 50% growth inhibition. As usually defined, the TGI is the concentration giving total growth inhibition. Lower therefore signals greater sensitivity of the cells. As to `COc1c(C)c2c(c(O)c1C/C=C(\C)CCC(=O)OCCN1CCOCC1)C(=O)OC2`, the GI50 in the experiment with A498 renal was 0.52 µM; in the experiment on KM12 colon, 0.317 µM; in the experiment with M14 melanoma it was 0.29 µM; with COLO 205 colon it was 0.692 µM; in the experiment with SNB-75 CNS it was 0.475 µM; in the experiment on OVCAR-4 ovarian, 0.576 µM. The GI50 was 2.5 µM in the experiment on MALME-3M melanoma, 0.27 µM in the experiment on IGROV1 ovarian, 1.12 µM in the experiment on HL-60(TB) leukemia and 0.383 µM in the experiment with SK-MEL-5 melanoma. Further, the TGI in the experiment with A498 renal is over 100 µM; with KM12 colon it was over 100 µM; in the experiment with M14 melanoma it was over 100 µM; with COLO 205 colon, over 100 µM; in the experiment on SNB-75 CNS it was over 24.9 µM; in the experiment with OVCAR-4 ovarian it was over 76.7 µM. In addition, the total growth inhibition concentration (TGI) with MALME-3M melanoma, in the experiment on IGROV1 ovarian, in the experiment with HL-60(TB) leukemia and in the experiment on SK-MEL-5 melanoma was over 100 µM throughout.

On to `COc1cc(Cl)cc(-c2nn(C(=O)NCCN3CCN(C)CC3)cc2-c2ccncc2)c1`, for which the GI50 was 4.67 µM with A498 renal; 20.5 µM in the experiment with KM12 colon; 9.46 µM in the experiment with M14 melanoma; 9.86 µM with COLO 205 colon; 1.75 µM in the experiment on SNB-75 CNS; 4.35 µM in the experiment on OVCAR-4 ovarian. Further, the GI50 with MALME-3M melanoma is 9.28 µM; with IGROV1 ovarian, 17.8 µM; in the experiment with HL-60(TB) leukemia, 25.6 µM; with SK-MEL-5 melanoma it was 3.76 µM. Moreover, the TGI is 24.7 µM in the experiment with A498 renal; 79.6 µM in the experiment with KM12 colon; 29.3 µM with M14 melanoma; 60.9 µM in the experiment with COLO 205 colon; 9.65 µM in the experiment on SNB-75 CNS; over 100 µM with OVCAR-4 ovarian. In addition, the TGI in the experiment with MALME-3M melanoma is 43.4 µM; in the experiment on IGROV1 ovarian, over 100 µM; in the experiment with HL-60(TB) leukemia, 75.8 µM; in the experiment with SK-MEL-5 melanoma, 16.7 µM.

In the case of `CC(=O)OCC1OC(OC2CC3C(C)(C)C(OC(C)=O)CC[C@]3(C)C3CCC45CC4(CC[C@H]5C(C)CC(O)[C@@H](O)C(C)(C)O)[C@]23C)C(O)C(O)C1O` (some centres undefined), the GI50 in the experiment with A498 renal was 19.6 µM; with KM12 colon, 4.36 µM; in the experiment with M14 melanoma, 4.97 µM; with COLO 205 colon, 1.93 µM; in the experiment on SNB-75 CNS it was 5.04 µM; with OVCAR-4 ovarian, 13.4 µM. Besides, the results for the GI50 with MALME-3M melanoma, with IGROV1 ovarian and with HL-60(TB) leukemia were 13.2 µM, 4.63 µM and 2.45 µM, respectively. Also, the TGI in the experiment with A498 renal was 13.2 µM and 35.6 µM; in the experiment on KM12 colon it was 14.2 µM and 14.1 µM; in the experiment on M14 melanoma, 13.1 µM and 16.6 µM; in the experiment with COLO 205 colon, 14 µM and 3.95 µM; with SNB-75 CNS, 12 µM and 16.8 µM; with OVCAR-4 ovarian, 12.7 µM and 26.1 µM. Besides, the TGI was 13.9 µM and 26 µM in the experiment with MALME-3M melanoma; 13.7 µM and 14.4 µM with IGROV1 ovarian; 11.9 µM and 5.3 µM with HL-60(TB) leukemia; 13.2 µM and 19.7 µM with SK-MEL-5 melanoma.

With `CC1(C)NCCC[C@]2(C)[C@H]3C=CC4=C5C[C@](C)(CO)CC[C@]5(C)CC[C@@]4(C)[C@]3(C)CC[C@@H]12`, the GI50 in the experiment on A498 renal was 11.4 µM; in the experiment on KM12 colon, 6.09 µM; with M14 melanoma, 3.91 µM; with COLO 205 colon, 3.63 µM; with SNB-75 CNS it was 3.43 µM; in the experiment on OVCAR-4 ovarian, 5.63 µM. Besides, the GI50 in the experiment with MALME-3M melanoma was 2.64 µM; in the experiment on IGROV1 ovarian, 4.08 µM; in the experiment on HL-60(TB) leukemia, 2.63 µM; in the experiment on SK-MEL-5 melanoma, 2.14 µM. The TGI with A498 renal amounted to 24.5 µM; with KM12 colon it was 20.3 µM; in the experiment with M14 melanoma, 14.8 µM; in the experiment on COLO 205 colon, 13.9 µM; in the experiment with SNB-75 CNS, 14.8 µM; with OVCAR-4 ovarian, 20.8 µM. The TGI in the experiment with MALME-3M melanoma stood at 8.01 µM; with IGROV1 ovarian it was 14.8 µM; in the experiment with HL-60(TB) leukemia, 7.02 µM; with SK-MEL-5 melanoma it was 4.94 µM.

Take `[N-]=[N+]=C(C(=O)OCC#CCOC(=O)C(=[N+]=[N-])S(=O)(=O)c1ccccc1)S(=O)(=O)c1ccccc1`: the TGI in the experiment on A498 renal, in the experiment on KM12 colon, with M14 melanoma, in the experiment on COLO 205 colon, with SNB-75 CNS and in the experiment on OVCAR-4 ovarian was over 10 µM in each case. Besides, the TGI with MALME-3M melanoma, in the experiment with IGROV1 ovarian, in the experiment with HL-60(TB) leukemia and with SK-MEL-5 melanoma was over 10 µM in each case.

Turning to `O=C(CNC(=O)OCc1ccccc1)Oc1ccccc1`, the TGI in the experiment on A498 renal, in the experiment on KM12 colon, in the experiment on M14 melanoma, in the experiment on COLO 205 colon, with SNB-75 CNS and in the experiment with OVCAR-4 ovarian was over 100 µM in each case. Besides, the TGI with MALME-3M melanoma, in the experiment with IGROV1 ovarian, in the experiment with HL-60(TB) leukemia and in the experiment on SK-MEL-5 melanoma was over 100 µM in each case.

In the case of `Cc1cc(C)c(O)c(CNCCCCCCNCc2cc(C)cc(C)c2O)c1`, the GI50 with A498 renal is 1.32 µM; in the experiment on KM12 colon, 1.82 µM; in the experiment with M14 melanoma, 1.72 µM; in the experiment on COLO 205 colon, 1.67 µM; in the experiment on SNB-75 CNS, 1.33 µM; in the experiment with OVCAR-4 ovarian, 1.51 µM. The GI50 with MALME-3M melanoma was 1.6 µM; with IGROV1 ovarian, 1.68 µM; with HL-60(TB) leukemia, 1.84 µM; with SK-MEL-5 melanoma, 1.61 µM. Moreover, the TGI was found to be 3.15 µM in the experiment with A498 renal; 3.51 µM in the experiment with KM12 colon; 3.59 µM with M14 melanoma; 3.32 µM with COLO 205 colon; 2.63 µM with SNB-75 CNS; 3.75 µM with OVCAR-4 ovarian. Further, the TGI with MALME-3M melanoma was found to be 3.17 µM; with IGROV1 ovarian, 3.49 µM; in the experiment with HL-60(TB) leukemia it was 3.77 µM; with SK-MEL-5 melanoma, 3.09 µM.

`CN(C)CCCN=C(N)N`: the TGI with A498 renal, with KM12 colon, in the experiment with M14 melanoma, with COLO 205 colon, in the experiment with SNB-75 CNS and with OVCAR-4 ovarian was over 100 µM in each case. Also, the TGI with MALME-3M melanoma, with IGROV1 ovarian, in the experiment on HL-60(TB) leukemia and in the experiment with SK-MEL-5 melanoma was over 100 µM in each case.

In the case of `C[C@]12CC[C@H](O)CC1=CC[C@@H]1C2CC[C@]2(C)c3nn(-c4ccc(F)cc4)nc3CC12` (some centres undefined), the TGI with A498 renal was over 100 µM; in the experiment with KM12 colon, over 100 µM; with M14 melanoma, over 100 µM; in the experiment on COLO 205 colon, over 100 µM; in the experiment on SNB-75 CNS, 74.4 µM; in the experiment on OVCAR-4 ovarian it was over 100 µM. For the same compound, the TGI with MALME-3M melanoma, with IGROV1 ovarian, with HL-60(TB) leukemia and in the experiment with SK-MEL-5 melanoma was over 100 µM in each case.
